The values that follow come from PMC10747250, “Structure-Based Optimization of 1,2,4-Triazole-3-Thione Derivatives: Improving Inhibition of NDM-/VIM-Type Metallo-β-Lactamases and Synergistic Activity on Resistant Bacteria” (Pharmaceuticals, 2023).

Several values for one entry are separate records, joined by “and”; a condition that tells them apart may be missing. Equal entries are not always repeated. Where two headings read alike, the source gives them in different places. Where only a bound is given, the exact number is not on record here.

The target of one assay is VIM-1 (Pseudomonas aeruginosa, UniProt A0A0F7KYQ8). Description: VIM-1 spectrophotometric enzyme inhibition assay (nitrocefin hydrolysis). The class given is biochemical. Set-up: dose or concentration left out as unconfirmed. As to conditions: 5 min, read-out: % Inib vs VIM-1. As for the experimental part: (§1) The synthesized compounds were all tested for their inhibitory activity against targeted MBLs using a spectrophotometric assay (Table S2). After an initial validation at fixed concentration, compounds yielding > 0% inhibition were profiled in dose–response experiments to determine their IC50. The IC50 values were determined by measuring the rate of hydrolysis of the reporter substrate meropenem MEM ([S] = 57 μM; Km = 63.4 μM) in the presence of five different inhibitor concentrations. Assays were run after a 5 min incubation. The Ki was either calculated by the Cheng–Prusoff equation assuming competitive inhibition, or, for selected inhibitors, fully determined with Dixon plots (Figure S1).
(§2) The percentage of inhibition (%Inh) of 1,2,4-triazole derivatives was determined against a panel of subclass B1 MBLs (NDM-1, VIM-1, VIM-2, and IMP-1). Each compound was initially tested at a fixed concentration for inhibitory activity vs. the targeted enzymes. For the best active inhibitors, half-maximal inhibitory concentration (IC50) and Ki values were determined. Reactions were monitored using a Jasco V-730 spectrophotometer ( JASCO EUROPE S.R.L. Via Luigi Cadorna 1 23894 Cremella (LC) Italy) using nitrocefin or meropenem as reported substrates. Compounds were dissolved in dimethyl sulfoxide (DMSO) and stored at −20 °C. For VIM-1, VIM-2, and IMP-1MBLs, assays were conducted in 20 mM of HEPES, 100 mM of NaCl, and ZnSO4 at 10 µM at pH 7.4 at 25 °C with 0.01% v/v Triton X-100 to avoid compound aggregation and promiscuous inhibition. For NDM-1, assays were conducted in 20 mM of TRIS HCl + 150 mM of NaCl at pH 7.5 at 25°C with 0.01% v/v Triton X-100 to avoid aggregation.
Table S2. The inhibitory activity of 4-amino-4H-1,2,4-triazole-3-thiol derivatives discussed here. […]
Tests were conducted at 25° C by following the absorbance variation observed upon reporter substrate (Meropenem 57 μM for NDM-1, 17 μM for VIM-2) or Nitrocefin (23 μM for VIM-1). The percentage of inhibition is reported except when ≤ 15% and in this case is indicated by NI “no inhibition”. Compounds concentration was […] vs NDM-1. Assays were run after a 5-minutes incubation. […]

For the next assay, the target named is T1, NDM-1 (Klebsiella pneumoniae, UniProt C7C422).
T1 construct: made in house; host or cells: E. coli BL21(DE3)
Briefly: NDM-1 spectrophotometric enzyme inhibition assay (meropenem hydrolysis). Also noted: inhibition: dose or concentration left out as unconfirmed. The class given is biochemical. The following applies: for NDM-1 inhibitory activity: at 100 μM; for IC50: substrate MEM 57 μM, 5 min incubation, triplicate, NI: no inhibition (<30% inhibition at 100 µM); for IC50 / Ki: 25 °C; for Ki: substrate MEM; for inhibition: 5 min, read-out: % Inib vs NDM-1. The method, then:
as §1, §2
(§3) For all targeted proteins, the reaction was typically initiated by adding the substrate to the reaction buffer last, after a 5 min preincubation. After brief shaking, the reading was performed for a total kinetic time of 240 s at 25 °C. The IC50 values were determined by measuring the rate of hydrolysis of the reporter substrate in the presence of five different inhibitor concentrations. The binding affinity Ki was generally estimated from the determined IC50 using the Cheng–Prusoff equation as per competitive inhibition. For the best inhibitors, the mechanism of inhibition and Ki were determined with a Dixon plot (CP 22, CP 35, CP 56, and CP 57 against NDM-1; compound CP 57 against VIM-2).

In assay [1] the test system is K. pneumoniae VA-416/02 (VIM-4). Briefly: Synergy with meropenem, broth microdilution MIC. The class given is cell-based. As for the experimental part:
(§4) The potential synergistic activity of the three best inhibitors (CP 35, CP 56, and CP 57) was tested using the broth microdilution method on six MBL-producing multidrug-resistant clinical isolates. […] Although apparently modest, this increase in synergistic activity represents a significant improvement over the previous generation of triazole-thione β-lactamase inhibitors previous described by our group.
A general note: Dilution methods test growth across graded concentrations, often in twofold steps.

Assay [2] relates to P. aeruginosa VA-182/00 (VIM-2). Description: Synergy with meropenem, broth microdilution MIC. The class given is cell-based, Pseudomonas aeruginosa. As for the experimental part:
as §4

In another assay the target is VIM-2 (Escherichia coli, UniProt Q5U7L7). Description: VIM-2 spectrophotometric enzyme inhibition assay (meropenem hydrolysis). The class given is biochemical. As to conditions: 25 °C; for % Inib vs VIM-2: meropenem 17 μM, 5 min incubation, NI = no inhibition (≤15%). The method, then:
The synthesized compounds were all tested for their inhibitory activity against targeted MBLs using a spectrophotometric assay (Table S2). After an initial validation at fixed concentration, compounds yielding > 0% inhibition were profiled in dose–response experiments to determine their IC50. […] Assays were run after a 5 min incubation. The Ki was either calculated by the Cheng–Prusoff equation assuming competitive inhibition, or, for selected inhibitors, fully determined with Dixon plots (Figure S1).
as §2, §3

Assay [3] has as its system six MBL-producing multidrug-resistant clinical isolates. Description: Growth inhibition by the compound tested alone. The class given is cell-based. The following applies: 32 μg/mL, without MEM. The method, then: as §4
Assay [4] deals with K. pneumoniae SI-518 (NDM-1). Briefly: Synergy with meropenem, broth microdilution MIC. The class given is cell-based. As for the experimental part:
as §4

Assay [5] relates to K. pneumoniae SI-1072 (NDM-1). Briefly: Synergy with meropenem, broth microdilution MIC. The assay is classed as cell-based. The method, then:
as §4

For a further assay, the target named is MBLs. Set-up: method as in PMID 36450011, PMID 31871094, PMID 32482673. The following applies: cited from earlier work.
Where [6] appears, read: compound 32 μg/mL, VIM-4-producing K. pneumoniae.
Setting [7] is: Ki determined with Dixon plots, read-out: NDM-1 Ki (Dixon plots).
Where [8] appears, read: Ki calculated from IC50 as per competitive inhibition (Cheng–Prusoff), read-out: NDM-1 Ki (calculated from IC50).
[9] abbreviates: Klebsiella pneumoniae, MEM alone (Cpd: None).
The mark [10] stands for this setting: compound 32 μg/mL, NDM-1-producing K. pneumoniae (strain not given).

T1 sequence (C7C422 29-270, looked up, species assumed): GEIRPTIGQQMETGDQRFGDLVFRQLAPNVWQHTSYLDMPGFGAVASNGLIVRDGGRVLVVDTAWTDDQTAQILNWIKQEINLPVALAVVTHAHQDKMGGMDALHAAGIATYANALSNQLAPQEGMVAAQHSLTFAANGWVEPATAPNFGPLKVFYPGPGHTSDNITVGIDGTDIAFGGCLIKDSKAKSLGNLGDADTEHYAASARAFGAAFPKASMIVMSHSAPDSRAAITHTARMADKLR

Take `O=C(O)c1ccccc1/C=N/n1cnnc1S` [CP 29, (E)-2-(((3-Mercapto-4H-1,2,4-triazol-4-yl)imino)methyl)benzoic acid]: the inhibition at VIM-1 is 17%. Also, on NDM-1, the NDM-1 inhibitory activity result is reported as “no inhibitory activity” and the IC50 was above 100 µM.

For `FC(F)(F)c1nnc(S)n1/N=C/c1cccc(Br)c1` [CP 35, (E)-4-((3-Bromobenzylidene)amino)-5-(trifluoromethyl)-4H-1,2,4-triazole-3-thiol], the “synergistic activity with MEM” value in [1] (setting [6]) is listed as “no synergistic activity at all”; in assay [2] (compound 32 μg/mL, VIM-2 P. aeruginosa), “no synergistic activity at all”. Further, at VIM-2, the “% Inib vs VIM-2” value is recorded as 53%. For the same compound, the Ki at NDM-1 (setting [7]) was determined as 25.8 µM. Also, the “growth inhibition, compound tested alone” value in [3] is “no growth inhibition”.

For `N#Cc1ccccc1/C=N/n1cnnc1S` [CP 31, (E)-2-(((3-Mercapto-4H-1,2,4-triazol-4-yl)imino)methyl)benzonitrile], on NDM-1, the inhibition amounted to 10%.

As to `O=C(O)c1ccccc1/C=N/n1c(S)nnc1C(F)(F)F` [CP 45, (E)-2-(((3-Mercapto-5-(trifluoromethyl)-4H-1,2,4-triazol-4-yl)imino)methyl)benzoic acid], the Ki on NDM-1 (setting [8]) is 83 µM.

As for `Sc1nncn1/N=C/c1cccc(Br)c1` [CP 22, (E)-4-((3-Bromobenzylidene)amino)-4H-1,2,4-triazole-3-thiol], on VIM-1, the inhibition amounted to 46%. Also, on NDM-1, the inhibition amounted to 68% and the IC50 turned out to be 88.5 ± 3.7 µM. For the same compound, the Ki on NDM-1 (setting [7]) was determined as 42.7 µM.

In the case of `COc1ccccc1/C=N/n1cnnc1S` [CP 21, (E)-4-((2-Methoxybenzylidene)amino)-4H-1,2,4-triazole-3-thiol], the inhibition at VIM-1 amounted to 32%; on NDM-1, 38%.

As for `FC(F)(F)c1ccc(-c2nnc(S)n2/N=C/c2nn[nH]n2)cc1` [CP 58, (E)-4-(((2H-Tetrazol-5-yl)methylene)amino)-5-(4-(trifluoromethyl)phenyl)-4H-1,2,4-triazole-3-thiol], on VIM-2, the “% Inib vs VIM-2” value was found to be 53%.

As to `C[C@@H](O)[C@H]1C(=O)N2C(C(=O)O)=C(S[C@@H]3CN[C@H](C(=O)N(C)C)C3)[C@H](C)[C@H]12` [MEM, meropenem, reference compound], the MIC in [1] (setting [9]) turned out to be 16 µg/mL; in assay [4] (setting [9]), 128 µg/mL; in [5] (setting [9]), 128 µg/mL; in assay [2] (Pseudomonas aeruginosa, MEM alone (Cpd: None)), 256 µg/mL.

Consider `Sc1nncn1/N=C/c1cccc2ccccc12` [CP 18, (E)-4-((Naphthalen-1-ylmethylene)amino)-4H-1,2,4-triazole-3-thiol], for which the inhibition at VIM-1 was 33%; at NDM-1, above 100%. For the same compound, the IC50 at NDM-1 was found to be 52 ± 7.5 µM.

For `Sc1nncn1/N=C/c1ccccc1Br` [CP 23, (E)-4-((2-Bromobenzylidene)amino)-4H-1,2,4-triazole-3-thiol], at NDM-1, the inhibition is 67% and the IC50 came to 83 ± 3.3 µM.

Turning to `Sc1nncn1/N=C/c1ccc(Br)cc1` [CP 24, (E)-4-((4-Bromobenzylidene)amino)-4H-1,2,4-triazole-3-thiol], the inhibition at VIM-1 is 28%; on NDM-1, 64%. Also, the IC50 at NDM-1 amounted to 83.1 ± 2.7 µM.

In the case of `NCCN[C@H]1CC[C@H](CC(=O)N[C@H]2Cc3cccc(C(=O)O)c3OB2O)CC1` [taniborbactam], on MBLs, the Ki values result is “low nanomolar range”.

On to `O=C(O)c1ccccc1/C=N/n1c(S)nnc1-c1ccc(C(F)(F)F)cc1` [CP 57, (E)-2-(((3-Mercapto-5-(4-(trifluoromethyl)phenyl)-4H-1,2,4-triazol-4-yl)imino)methyl)benzoic acid], for which the “reduction of meropenem MIC” value in assay [1] (setting [6]), in assay [4] (setting [10]) and in [5] (setting [10]) was “four-fold” throughout. The “synergistic activity with MEM” value in assay [1] (setting [6]) was “detectable synergistic effect”. Also, the “% Inib vs VIM-2” value at VIM-2 is above 100%. In addition, the Ki on VIM-2 (substrate MEM, Ki determined with Dixon plot, read-out: VIM-2 Ki (Dixon plots)) is 4.14 µM and 4.1 µM; at NDM-1 (setting [7]), 5.59 µM and 5.6 µM. Also, the “growth inhibition, compound tested alone” value in assay [3] was “no growth inhibition”.

As for `COc1cccc(/C=N/n2cnnc2S)c1` [CP 20, (E)-4-((3-Methoxybenzylidene)amino)-4H-1,2,4-triazole-3-thiol], the inhibition came out at 14% on VIM-1 and 40% on NDM-1.

On to `O=C(O)c1cccc(/C=N/n2c(S)nnc2-c2ccc(C(F)(F)F)cc2)c1` [CP 56, (E)-3-(((3-Mercapto-5-(4-(trifluoromethyl)phenyl)-4H-1,2,4-triazol-4-yl)imino)methyl)benzoic acid], for which, in assay [1] (setting [6]), the “synergistic activity with MEM” value is “detectable synergistic effect”. Besides, the “% Inib vs VIM-2” value at VIM-2 is reported as 42%. Also, the “growth inhibition, compound tested alone” value in [3] is on record as “no growth inhibition”.

With `O=C(O)c1ccc(/C=N/n2cnnc2S)cc1` [CP 30, (E)-4-(((3-Mercapto-4H-1,2,4-triazol-4-yl)imino)methyl)benzoic acid], at VIM-1, the inhibition turned out to be 18%. For the same compound, on NDM-1, the NDM-1 inhibitory activity entry is “no inhibitory activity” and the IC50 was above 100 µM.

Take `FC(F)(F)c1nnc(S)n1/N=C/c1nn[nH]n1` [CP 46, (E)-4-(((2H-Tetrazol-5-yl)methylene)amino)-5-(trifluoromethyl)-4H-1,2,4-triazole-3-thiol]: the “% Inib vs VIM-2” value on VIM-2 is recorded as 42%.

As for `FC(F)(F)c1ccccc1/C=N/n1cnnc1S` [CP 17, (E)-4-((2-(Trifluoromethyl)benzylidene)amino)-4H-1,2,4-triazole-3-thiol], on VIM-1, the inhibition is 46%. Moreover, on NDM-1, the inhibition was found to be 51%; the IC50 was > 100 µM and 226 µM.

For `COc1ccc(/C=N/n2cnnc2S)cc1` [CP 19, (E)-4-((4-Methoxybenzylidene)amino)-4H-1,2,4-triazole-3-thiol], the figures for the inhibition on VIM-1 and at NDM-1 were 15% and 24%, respectively.

As to `O=C(O)c1c(F)ccc2c1OB(O)[C@@H]1C[C@H]21` [QPX7728], on MBLs, the Ki values result was “low nanomolar range”.

As to `Sc1nncn1/N=C/c1ccccn1` [CP 32, (E)-4-((Pyridin-2-ylmethylene)amino)-4H-1,2,4-triazole-3-thiol], the inhibition was determined as 17% on VIM-1 and 20% on NDM-1.

As to `FC(F)(F)c1ccc(-c2nnc(S)n2/N=C/c2cccc(Br)c2)cc1` [CP 55, (E)-4-((3-Bromobenzylidene)amino)-5-(4-(trifluoromethyl)phenyl)-4H-1,2,4-triazole-3-thiol], at NDM-1 (setting [8]), the Ki was 220 µM.

For orientation: IC50 means the point on the concentration scale where inhibition reaches its midpoint. For orientation: Ki means a dissociation constant, usually derived from enzyme kinetics or from competition with a known ligand. A word on the MIC: it is the least concentration at which growth counts as inhibited.
